From the METLIN SMRT retention time set (Domingo-Almenara et al. 2019)

Assay: gradient 5% acetonitrile 3 min, to 50% in 2 min, to 85% in 15 min, held 3 min, 100 µL/min
Conditions: column: Zorbax Extend-C18 2.1 x 50 mm; eluents: water / acetonitrile, 0.1% formic acid
Method in brief: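 Data were gathered over 3 months by HPLC coupled to a quadrupole time-of-flight mass spectrometer, operated in positive and negative ionization mode. Mixtures of ~100 pure standards ran on a Zorbax Extend-C18 column (2.1 × 50 mm, 1.8 μm) at 100 μL/min, with water and acetonitrile each containing 0.1% formic acid and dead and dwell volumes of 40 μL and 900 μL. Retention time was read from adduct peaks picked by computer and checked manually.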

RP-LC retention time [s]	Compound
756	CCC(=O)N1CCc2cc(N3CC(C(=O)NCc4ccc(C)cc4)CC3=O)ccc21 (stereo not given)
683	Cc1ccc(CNC(=O)c2ccc3c(=O)n(Cc4ccccc4)c(N4CCCC4)nc3c2)o1
850	CCOc1ccccc1NC(=O)Cn1nc(C2CC2)cc1C(=O)N1CCCC1
1080	COC(=O)c1ccc(OC)c(Cn2cnc3c(-c4cccc(F)c4)csc3c2=O)c1
606	CC(C)NC(=O)c1ccccc1OCC1CCCN(C2CCC2)C1 (stereo not given)
730	Cc1ccccc1S(=O)(=O)N1CCC2(CC1)NCCN=C2NCc1cc(F)cc(F)c1
1290	CCOc1ccccc1NC(=O)Cc1c(C)nn(-c2nc(-c3ccc(F)cc3)cs2)c1C
596	O=C(Cc1nc(-c2ccccn2)n[nH]1)Nc1ccccc1
769	Cc1cc(C)cc(NC(=O)N2CCC3(CC2)NC(=O)c2cc(F)ccc2N3C)c1
533	CC(=O)N1CCN(S(=O)(=O)c2cccc(C(=O)NCc3cccnc3)c2)CC1
1030	CC(=O)N1CCc2sc(S(=O)(=O)N3CCN(c4cccc(C)c4C)CC3)cc2C1
637	O=C(NC1CCCCC1)C1CCN(c2cncnc2N2CCCC2)CC1
595	Cc1noc(C)c1CC(=O)N1CCCn2ccnc2C1C1CCCC1 (stereo not given)
918	Cc1ccc2[nH]cc(CCNC(=O)CSCc3nnc(C(=O)Nc4ccc(F)cc4)s3)c2c1
1030	CCCn1c(=O)c2cc(C(=O)Nc3ccccc3)nn2c2ccccc21
655	O=C(Cn1cnc2nc(N3CCCC(C(=O)NC4CC4)C3)sc2c1=O)Nc1cccc(F)c1 (stereo not given)
882	Cn1nc(-c2nc(C3CC3)no2)c2c1CCN(C(=O)Nc1ccc(Cl)cc1)C2
762	O=C(NCc1ccccc1F)C1CCCN(c2nn3c(=O)c4c(nc3s2)CCCC4)C1 (stereo not given)
853	Cc1csc(-c2cc(S(=O)(=O)Nc3ccc(F)cc3)cn2CC(=O)N2CCCC2)n1
886	O=S(=O)(c1cc(F)ccc1F)N1CCN(Cc2cccc(F)c2)C2(CCOCC2)C1
815	O=C(Cn1cccc(-c2nc(-c3ccccc3)no2)c1=O)Nc1ccc2c(c1)OCO2
816	O=C(N[C@H]1C[C@@H]2C[C@H]1N(S(=O)(=O)c1ccc3c(c1)OCCO3)C2)c1cccs1

RP-LC retention time [s]	Compound
745	CN1C(=O)c2cccnc2Sc2cc(NC(=O)c3cccs3)ccc21
728	COc1ccc(-n2ccn(CC(=O)Nc3ccc(Br)cc3)c(=O)c2=O)cc1
818	CCc1nc(-c2csc(S(=O)(=O)N3CCC(C(=O)NCc4ccccc4C)CC3)c2)no1
726	Cc1cc(=O)n2nc(N3CCCC(C(=O)N4CCC(Cc5ccccc5)CC4)C3)sc2n1 (stereo not given)
1080	CCc1ccccc1NC(=O)Cn1c(C)nc2c(sc3nc(-c4ccccc4)ccc32)c1=O
880	Cc1ccc(C)c(NC(=O)Cn2c(=O)n(-c3ccc(F)cc3)c3ncccc32)c1
660	CCC(=O)Nc1ccc(-n2cnc(C(=O)NCC3CC3)c2)nc1
834	Cc1cc(C)c(C(=O)N2CCCC(C(=O)NCc3ccccc3Cl)C2)[nH]1 (stereo not given)
816	CCOc1ccc(NC(=O)C2CCN(S(=O)(=O)c3ccc4c(c3)CCCC(=O)N4)CC2)cc1
881	COc1ccc(S(=O)(=O)N2CCC(n3cnc4c(C)cccc4c3=O)CC2)cc1OC
867	Cc1ccc(Cl)cc1NC(=O)NC1CCN(c2ccc(F)cc2)C1=O (stereo not given)
618	O=C(CN1CCC(c2nc(-c3ccc(F)cc3)no2)CC1)N1CCN(c2ccccc2)CC1
661	COc1ccccc1NC(=O)N1CCN(Cc2nc3cccnc3n2-c2ccccc2)CC1
1030	O=S(=O)(c1cc(-c2nnc(C3CCC3)o2)co1)N1CCc2ccccc2C1
962	Cc1ccc(S(=O)(=O)N2CCCC(CCC(=O)N3CCCCC3)C2)cc1 (stereo not given)
838	CC(=O)Nc1cccc(C2OC(c3c(OC(C)=O)ccc4ccccc34)=NN2C(C)=O)c1 (stereo not given)
676	Cc1ccc(NC(=O)N2CCC(n3cnc4cccnc43)CC2)c(Cl)c1
607	Cc1cc(CN2CCC(CNC(=O)C(=O)NCCC3=CCCCC3)CC2)c(C)o1
568	Cc1ccccc1-c1nc2cnccn2c1NCCC(=O)NC1CC1
680	Cc1ccc(CC(=O)NC2CCN(c3nnc4cccc(C)n34)CC2)cc1
771	CCC1(C(=O)Nc2ccc(C)c(F)c2)CCCCC(=O)N1 (stereo not given)

Second part, the compound before the results:

Compound	RP-LC retention time [s]
COc1ccc(N2CC(c3nc(-c4ccc(C)cc4)no3)CC2=O)c(OC)c1 (stereo not given)	888
Cc1ccc(Nc2c(-c3ccc(N(C)C)cc3)nc3ccc(Cl)cn23)cc1	818
COCCCNC(=O)c1cc(-c2ccc(OC)cc2)nc2n[nH]c(-c3ccccc3)c12	789
Cc1nc2cc(-c3noc(-c4ccc(Cl)cc4)n3)ccc2o1	1210
Cc1ccc(Nc2c(-c3ccccc3)nc3cccc(C)n23)cc1	757
COCCN1C(=O)c2ccccc2C(C(=O)NCc2ccc(OC)cc2)C12CCCC2 (stereo not given)	785
NC(=O)C1(c2ccccc2Cl)CC1	692
CCOc1ccccc1NC(=O)NCCn1c(C(F)(F)F)nc2cccnc21	799
CCOC(=O)c1c(C)[nH]c(CCC(=O)NC2CCCC2)c1C	780
COc1cccc(CCC(=O)N2CCn3cnnc3C2)c1	584
Cn1nccc1-c1cccc(-c2noc(-c3cncc(Br)c3)n2)c1	1100
COC(=O)c1c(NCCc2c[nH]c3ccccc23)c2cccc(Cl)c2[nH]c1=O	824
Cc1cccc(CN2CC(=O)N(c3cccc(C)c3)[C@@H]3CS(=O)(=O)C[C@@H]32)c1	826
Cn1cc2nc(SCc3cc(F)cc(F)c3)n(Cc3ccc(F)cc3)c(=O)c2n1	1070
CCCN1C(=O)c2cc(S(=O)(=O)Nc3cccc(Cl)c3)ccc2Oc2cccnc21	1120
CCOCCCNC(=O)C1c2ccccc2C(=O)N(C)C1c1cccs1 (stereo not given)	722
CCNC(=O)c1cc(C)nc2ccc(Cl)cc12	649
COc1cc2c(Nc3ccc(NC(=O)c4ccccc4)cc3)ncnc2cc1OCCCN1CCOCC1	627
CN(C)C(CNC(=O)c1cc(=O)c2cc(Cl)ccc2o1)c1cccs1 (stereo not given)	631
COc1cccc(CN2CCC3(CCC3O)CC2)n1 (stereo not given)	569
CC(C)(C)c1ccc(-c2noc(Cn3c(=O)n(-c4ccccc4F)c(=O)c4sccc43)n2)cc1	1220
CSc1n[nH]c(-c2cccs2)n1	714
O=C(c1ccc(Br)cc1)N1CCN(C(=O)c2cc(-c3cccnc3)n[nH]2)CC1	626
CCCCNC(=O)c1sc(Nc2cccc(C)n2)nc1C	777

Compound	RP-LC retention time [s]
Cc1nnc([C@@H]2CC(F)(F)CN2C(=O)COc2ccc(F)cc2)o1	736
COc1cc(NC(=O)CCc2c(C)nn3cnnc3c2C)cc(OC)c1	662
Cc1ccc(C)c(-c2nc(-c3cccc(-c4ccn[nH]4)c3)no2)c1	1190
COc1ccccc1Nc1c(-c2ccc(N3CCOCC3)cc2)nc2cnccn12	806
CNC(=O)c1c(C)c(-c2ccccc2)n(C)c1C	812
COc1cc(C(O)CCBr)c(OC)cc1C (stereo not given)	1020
Cc1ccc(Cl)c(NC(=O)Cc2csc(C)n2)c1	687
COc1cc(-c2nc3ncccn3c2NCc2ccc(C)cc2)cc(OC)c1OC	746
COc1ccc(CC(=O)Nc2ccc(-c3cn4ccsc4n3)cc2)cc1OC	604
CCOc1cccc(CNC(=O)c2c(C)sc3ccn(C)c(=O)c23)c1	804
CCC(C(=O)NCCCN1CCOCC1)n1c2ccccc2c2cnn(C)c(=O)c21 (stereo not given)	609
CCn1cc(-c2ccc(Cl)cc2)cc1C(=O)NCc1ccccn1	790
COc1ccc(-c2oc3c(CC=C(C)C)c(O)cc(O)c3c(=O)c2O)cc1	1040
Cc1nc2c(NS(=O)(=O)c3ccc(Cl)cc3)cccn2n1	778
O=S(=O)(Cc1ccccc1)N1CCC(Cc2nc(-c3cccnc3)n[nH]2)C1 (stereo not given)	628
O=C(c1ccoc1)N1CC(n2cc(COCc3ccccc3)nn2)C1	734
Cc1cc(=O)n2c(-c3ccc(NC(=O)C(C)Oc4ccc5c(c4)OCO5)cc3)csc2n1 (stereo not given)	757
O=C(CCSCc1cnn(-c2ccccc2)c1-n1cccc1)N1CCN(c2ccccn2)CC1	707
O=C(NCc1cccc(C(F)(F)F)c1)c1c[nH]c2ncccc12	760
CC1CC(=O)Nc2ccccc2N1C(=O)COc1ccc(Cl)cc1Cl (stereo not given)	844
Cc1cccc(OCCc2noc(C3CNC3)n2)c1	644
COc1ccc(-c2nc3cnccn3c2Nc2ccc(C(=O)NCCN(C)C)cc2)cc1OC	576
Cc1occc1-c1nnc2sc(COc3ccc(F)cc3)nn12	939
